Several values for one entry are separate records, joined by “and”; a condition that tells them apart may be missing. Equal values may be shown once. Where a name gives a salt, the structure may show the parent alone.

Data on nine compounds can be found in patent US4772607A, “Dialkenyl derivatives of xanthine, pharmaceutical compositions and methods of use therefor” (Warner-Lambert Company, priority 1986, dated 1988).

Test [1] relates to A1 and A2 adenosine receptor. To be noted: disclosed by Hamilton et al, J. Med. Chem. (1985) 28: 1071; cited from earlier work.
Test [2] has as its system locomotor suppressant effects of A2 selective agonist CV-1808. Description: CNS activity: antagonism of locomotor suppressant effect of A2 agonist CV-1808 in mice. In kind it is in vivo, mouse (male Swiss-Webster). To be noted: for Locomotor activity, % suppression (B, A2 agonist alone): CV-1808 8 mg/kg IP alone.
Description: (§1) The procedure employs naive animals obviating the need for extensive training and precluding possible cumulative drug effects.
(§2) Suspensions are ultrasonicated for 3 minutes.
The target in test [3] is T1, A1 adenosine receptor (Rattus norvegicus, UniProt P25099).
T1 construct: Whole brain minus cerebellum and brainstem from male Long-Evans rats (150-200 g) is homogenized; from tissue; host or cells: rat whole brain minus cerebellum and brainstem, membranes
T1 sequence (P25099 1-326): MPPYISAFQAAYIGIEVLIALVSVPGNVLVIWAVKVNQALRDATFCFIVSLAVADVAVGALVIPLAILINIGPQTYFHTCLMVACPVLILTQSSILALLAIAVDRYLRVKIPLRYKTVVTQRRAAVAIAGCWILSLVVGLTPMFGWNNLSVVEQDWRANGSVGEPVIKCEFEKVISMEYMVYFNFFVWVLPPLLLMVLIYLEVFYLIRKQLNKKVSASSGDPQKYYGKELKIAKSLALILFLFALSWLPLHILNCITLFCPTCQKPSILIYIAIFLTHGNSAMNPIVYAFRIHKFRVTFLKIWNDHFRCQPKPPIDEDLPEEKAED
Description: Adenosine Receptor Binding--A1 Receptor Affinity (RBA1), [3H]-CHA, rat whole brain membranes. On the set-up: species or system rat (male Long-Evans). The conditions noted are these: [3H]-CHA 1.0 nM, 25° C., one hour, pH 7.7; read-out: RBA-1 IC50 (adenosine A1 receptor affinity). As for the experimental part:
Adenosine Receptor Binding--A1 Receptor Affinity (RBA1)
Whole brain minus cerebellum and brainstem from male Long-Evans rats (150-200 g) is homogenized in 30 volumes of ice-cold 0.05M Tris-HCl buffer pH 7.7 using a Brinkman Polytron PT-10, (setting number 6 for 20 seconds) and centrifuged for ten minutes at 20,000×g (Sorvall RC-2), 4° C. The supernatant is discarded, and the pellet is resuspended and centrifuged as before. The pellet is resuspended in 20 ml Tris-HCl buffer containing two International Units/ml of adenosine deaminase (Sigma type III from calf intestinal mucosa), incubated at 37° C. for 30 minutes, then subsequently at 0° C. for ten minutes. The homogenate is again centrifuged, and the final pellet is resuspended in ice-cold 0.05M Tris-HCl buffer pH 7.7 to a concentration of 20 mg/ml original wet tissue weight and used immediately.
Tissue homogenate (10 mg/ml) is incubated in 0.05M Tris-HCl buffer pH 7.7 containing 1.0 nM [^3 H]-N6-cyclohexyladenosine ([^3 H]-CHA) with or without test agents in triplicate for one hour at 25° C. Incubation volume was 2 ml. Unbound [^3 H]-CHA is separated by rapid filtration under reduced pressure through Whatman glass fiber (GF/B) filters. The filters are rinsed three times with 5 ml of ice-cold 0.05M Tris-HCl buffer pH 7.7. The radio-labeled ligand retained on the filter is measured by liquid scintillation spectrophotometry after shaking the filters for one hour or longer on a mechanical shaker in 10 ml of Beckman Ready-Solv HP scintillation cocktail.
The Scatchard plot is calculated by linear regression of the line obtained by plotting the amount of radioligand bound (pmoles/gram of tissue) versus [formula] Since the amount of radioligand bound is a small fraction of the total amount added, free radioligand is defined as the concentration of (nM) of radioligand added to the incubation mixture. The Hill coefficient is calculated by linear regression of the line obtained by plotting the log of the bound radioligand vs the log of the [formula] The maximal number of binding sites (Bmax) is calculated from the Scatchard plot.

Test [4] deals with T2, A2 adenosine receptor (Rattus norvegicus, UniProt P30543).
T2 construct: Brains are thawed and then kept on ice while the striata are dissected out; tissue Pel-Freez (Rogers, Ark.); host or cells: rat striatum, membranes
T2 sequence (P30543 whole entry): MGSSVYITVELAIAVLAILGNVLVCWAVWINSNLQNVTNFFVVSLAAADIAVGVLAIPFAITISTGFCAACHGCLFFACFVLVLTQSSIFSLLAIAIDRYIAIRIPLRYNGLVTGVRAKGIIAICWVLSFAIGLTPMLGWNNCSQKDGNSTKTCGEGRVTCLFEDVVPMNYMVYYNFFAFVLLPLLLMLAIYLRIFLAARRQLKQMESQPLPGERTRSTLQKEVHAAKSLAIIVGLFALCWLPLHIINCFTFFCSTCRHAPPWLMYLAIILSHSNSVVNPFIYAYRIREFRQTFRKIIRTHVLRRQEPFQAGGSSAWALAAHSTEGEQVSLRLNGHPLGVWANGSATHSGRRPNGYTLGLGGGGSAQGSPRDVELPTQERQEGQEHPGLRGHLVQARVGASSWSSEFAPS
Description: Adenosine Receptor Binding--A2 Receptor Affinity (RBA2), [3H]NECA, rat striatal membranes. Also noted: species or system rat (Sprague-Dawley). The conditions noted are these: [3H]NECA 4 nM, 50 nM N6-cyclopentyladenosine, 25° C., 60 minutes; read-out: RBA-2 IC50 (adenosine A2 receptor affinity). The method, then:
Adenosine Receptor Binding--A2 Receptor Affinity (RBA2)
The membrane suspension (5 mg/0.79 ml) contained sufficient MgCl2 and adenosine deaminase to give 10 mM and 0.1 units/ml, respectively, final concentration in the incubation.
[formula] where Y is cpm bound
T is cpm total binding without drug
S is cpm specific binding without drug
D is the concentration of drug and
K is the IC50 of the drug

For test [5], the system named is locomotor suppressant effects of A1 selective adenosine agonist CPA. Description: CNS activity: antagonism of locomotor suppressant effect of A1 agonist CPA in mice. In kind it is in vivo, mouse (male Swiss-Webster).
Description: as §1, §2
Test [6] in a line: CNS activity: locomotor activity of antagonist alone in mice (reference control). In kind it is in vivo, mouse (male Swiss-Webster). To be noted: antagonist 10 mg/kg IP alone; CV-1808 experiment.

As for `C=CCn1c(=O)c2[nH]c(-c3ccc(S(=O)(=O)NCCCN(C)C)cc3)nc2n(CC=C)c1=O` [N-[3-(dimethylamino)propyl]-4-(2,3,6,7-tetrahydro-2,6-dioxo-1,3-2-propenyl-1H-purine-8-yl)benzensulfonamide], the “A1 and A2 adenosine receptor binding activity (in words)” value in test [1] is “having A1 and A2 adenosine receptor binding activity”.
Turning to `Nc1nc(Nc2ccccc2)nc2c1ncn2[C@@H]1O[C@H](CO)[C@@H](O)[C@H]1O` [CV-1808, 2-anilinoadenosine, reference compound], the figures for the “Locomotor activity, % suppression (B, A2 agonist alone)” value in test [2] (8 mg/kg) and in test [2] (listed as CV-1810) were 83% and 62%, respectively.
Regarding “8-(4-sulfonylphenyl)-3,9-dihydro-1,3-bis(2-propenyl)-1H-purine-2,6-dione”, the “A1 and A2 adenosine receptor binding activity (in words)” value in test [1] was “having A1 and A2 adenosine receptor binding activity”.
In general, IC50 refers to the point on the concentration scale where inhibition reaches its midpoint. Take `C=CCn1c(=O)c2[nH]c(-c3ccc(S(=O)(=O)NCCCN(C)C)cc3)nc2n(CC=C)c1=O` [Example 3, N-[3-(dimethylamino)propyl]-4-(2,3,6,7-tetrahydro-2,6-dioxo-1,3-di-2-propenyl-1H-purine-8-yl)benzenesulfonamide monohydrochloride]: the IC50 in test [3] worked out at 260 nM.
With `C=CCn1c(=O)c2[nH]c(C3CCCC3)nc2n(CC=C)c1=O` [Example 4, 8-Cyclopentyl-3,7-dihydro-1,3-bis(2-propenyl)-1H-purine-2,6-dione], the IC50 in test [3] came to 9 nM; in test [4], 3500 nM. Further, the “Locomotor activity, % suppression (C, agonist + antagonist)” value amounted to 16% in test [5] (antagonist 10 mg/kg + CPA 2 mg/kg, IP) and 57% in test [2] (antagonist + CV-1808 8 mg/kg, IP, antagonist 10 mg/kg). The “% Reversal (B - C) ÷ B × 100, against CPA (A1)” value in test [5] (antagonist 10 mg/kg, CPA 2 mg/kg, IP) worked out at 82%. Also, the “Reversal Rating A1 (against CPA)” value in test [5] (paired t-test of B and C) is on record as “A (if the values are significantly different (p<0.05) from each other then the dose effect is given a reversal rating of "A")”. In addition, the “% Reversal (B - C) ÷ B × 100, against CV-1808 (A2)” value in test [2] (antagonist 10 mg/kg, CV-1808 8 mg/kg, IP) was determined as 8%. The “Reversal Rating A2 (against CV-1808)” value in test [2] (paired t-test of B and C) is recorded as “N (if the data are insignificant (p>0.05) then the dose effect is given a rating of "N")”. The “Locomotor activity, % suppression (A, antagonist alone)” value in test [6] is recorded as 18%.
On to `C=CCn1c(=O)c2nc(C)[nH]c2n(CC=C)c1=O` [8-methyl-3,9-dihydro-1,3-bis(2-propenyl)-1H-purine-2,6-dione], for which, in test [1], the “A1 and A2 adenosine receptor binding activity (in words)” value was “having A1 and A2 adenosine receptor binding activity”.
In the case of `C=CCn1c(=O)c2nc(-c3ccc(Cl)cc3N)[nH]c2n(CC=C)c1=O` [Example 1, 8-(2-Amino-4-chlorophenyl)-3,9-dihydro-1,3-bis(2-propenyl)-1H-purine-2,6-dione], the concentration for half-maximal inhibition (IC50) in test [3] amounted to 130 nM. Moreover, the “A1 and A2 adenosine receptor binding activity (in words)” value in test [1] is “having A1 and A2 adenosine receptor binding activity”.
Consider `OC[C@H]1O[C@@H](n2cnc3c(NC4CCCC4)ncnc32)[C@H](O)[C@@H]1O` [CPA, N^6 -cyclopentyladenosine, reference compound], for which the “Locomotor activity, % suppression (B, A1 agonist alone)” value in test [5] (CPA 2 mg/kg IP alone) was 90% and 94%.
As for `C=CCn1c(=O)c2nc(-c3ccc(S(=O)(=O)O)cc3)[nH]c2n(CC=C)c1=O` [Example 2, 4-(2,3,6,7-Tetrahydro-2,6-dioxo-1,3-di-2-propenyl-1H-purine-8-yl)benzenesulfonic acid], the IC50 in test [3] is 6960 nM.
